Data taken from patent US20070105808A1, “Inhibition of histone deacetylase” (MethylGene, Inc., priority 1999, published 2007).
Where a SMILES comes first, the peptide text is derived from it. [ ]: non-standard residue; d: D form. Aoe = N[C@@H](CCCCCC(=O)[C@@H]1CO1)C(=O)O; d = 2'-deoxy (DNA); m = 2'-O-methyl

How the values were obtained:
HDAC-1 protein = test: Western blotting analysis of HDAC-1 protein expression in transfected T24 cells; type: cell-based, human; details: FIG. 4; second generation oligonucleotides, T24 cells transfected twice with 50 nM, lysates 24 h after second transfection
Method: (§1) To do this, T24 cells were transfected with oligonucleotide using lipofectin as described above. Twenty-four hours later, the cells were lysed according to standard procedures. The whole cell extracts (50 μg) were resolved on 7-15% gradient SDS/PAGE, transferred to PVDF membrane (Amersham, Arlington Heights, Ill.), and subjected to Western blotting analysis with rabbit polyclonal HDAC1- and HDAC-2 specific antibodies (1:500, Santa Cruz Biotech., Santa Cruz, Calif.) were used. Detection was accomplished with a secondary anti-rabbit IgG-HR peroxidase antibody and an enhanced chemiluminescence detection kit (Amersham) accordingly to manufacturer's instructions.
T24 cells were transfected twice as described above with 50 nM oligonucleotide. Cell lysates were prepared twenty-four hours following the second transfection, resolved on 7-15% gradient SDS-PAGE, and transferred to PVDF membrane. The PVDF membrane blot was first blotted with anti-HDAC-1 antibody. Following detection with horseradish peroxidase-labelled secondary antibody and enhanced chemiluminescence, the blot was stripped, and re-probed with anti-HDAC-2 antibody. Following detection, the blot was stripped for a second time and re-probed with an actin-specific antibody to verify equal protein loading in the lanes.

HDAC-2 protein = test: Western blotting analysis of HDAC-2 protein expression in transfected T24 cells; type: cell-based, human; details: FIG. 3; 50 nM second generation oligonucleotide, T24 cells transfected twice, 48 hours after the first transfection
Method: as §1
Twenty-four hours later, the cells were transfected a second time with the same amount of the same oligonucleotide. Twenty-four hours after this (i.e., 48 hours after the first transfection), cellular proteins were prepared, resolved on 7-15% gradient SDS-PAGE, and subjected to Western blotting analysis as described in Example 1 with rabbit polyclonal HDAC2 specific antibody (1:500, Santa Cruz Biotech). Following blotting with the secondary anti-rabbit IgG-HR peroxidase antibody and visualization with the enhanced chemiluminescence detection kit (Amersham), the blot was stripped and re-probed with an antibody specific to actin to verify equal loading of all wells (data not shown). […]

[1] = tested on: cell cycle progression in cells; details: literature reports; cited from earlier work
histone deacetylase = details: Yoshida et al.; cited from earlier work

| Molecule | cell cycle progression [1] | other results |
| --- | --- | --- |
| 5′-CAAUCGTCAGAGACTCCGAA-3′ (antisense CAAUCGTCAGAGACTCCGAA; sugars from the 5' end m4 d12 m4, backbone and methylation of C not given here) [MG2609, mismatch control oligonucleotide of HDAC-1 (MG2608)] | – | inhibition of HDAC-1 protein expression (HDAC-1 protein): failed to inhibit |
| 5′-CUCCTTGACTGTACGCCAUG-3′ [MG2636] | – | inhibition of HDAC-2 protein expression (HDAC-2 protein): able to inhibit HDAC-2 protein expression |
| C/C=C1\NC(=O)[C@H]2CSSCC/C=C/[C@H](CC(=O)N[C@H](C(C)C)C(=O)N2)OC(=O)[C@H](C(C)C)NC1=O [FR901228] | inhibit cell cycle progression in cells | – |
| CC(/C=C/C(=O)NO)=C\[C@@H](C)C(=O)c1ccc(N(C)C)cc1 [Trichostatin A] | arrest cell cycle progression in cells in the G1 and G2 phases | inhibition of histone deacetylase activity (histone deacetylase): inhibit histone deacetylase activity |
| O=C(CCCCCCC(=O)Nc1ccccc1)NO [suberoylanilide hydroxamic acid] | inhibit cell cycle progression in cells | – |
| O=C1N[C@@H](Cc2ccccc2)C(=O)N2CCC[C@@H]2C(=O)N[C@@H](CCCCCC(=O)[C@@H]2CO2)C(=O)N[C@H]1Cc1ccccc1 [trapoxin] (cyclo(FF[dP][Aoe])) | inhibit cell cycle progression in cells | – |
| CC(/C=C/C(=O)NO[C@@H]1O[C@H](CO)[C@@H](O)[C@H](O)[C@H]1O)=C\[C@@H](C)C(=O)c1ccc(N(C)C)cc1 [trichostatin C] | inhibit cell cycle progression in cells | – |
| depudecin | inhibit cell cycle progression in cells | – |
